pIC50: −log10 of the molar value. Read-outs that look alike come from different tables or passages of the source.
Assays:
[1] = tested on: SU-DHL-4 cells; test: Inhibitory effect on cell viability in SU-DHL-4 cell line (Test Example 1); type: cell-based, human; conditions: 72 hours; for pIC50: SU-DHL-4 (wild type) cells, calculated using the measurement results of test example 1, read-out: SU-DHL-4 WT IC50; for IC90: SU-DHL-4 cells, Cell Counting Kit-8, concentration showing 90% inhibition of cell viability, read-out: SU-DHL-4 Cell Viability Inhibition Rate IC90
Summary of the method: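 SU-DHL-4 cells were grown at 37° C. under 5% CO2 in RPMI1640 with 10 vol % heat-inactivated FBS plus penicillin/streptomycin, seeded and precultured for 18 to 25 hours, then exposed to test compound at 0.1 vol % DMSO for 72 hours. Viability was read with Cell Counting Kit-8 by absorbance at 450 nm.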

[2] = tested on: MYC mRNA expression in SU-DHL-4 cells; test: Suppressive effect on MYC mRNA expression (Test Example 2); type: cell-based, human; conditions: test compound 100 nmol/L, 6 hours, qRT-PCR corrected by ACTB, GAPDH; for Suppression Rate of MYC mRNA Expression (%): HPRT1; for inhibition at 0.1 µM: Homo sapiens, HPRT1, read-out: Suppression Rate of MYC mRNA Expression (%)
Summary of the method: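 SU-DHL-4 cells were treated for 6 h at 37 °C with compound (0.1% DMSO final). MYC mRNA was measured by TaqMan qRT-PCR and normalised to the geometric mean of ACTB, GAPDH and HPRT1. Suppression was calculated relative to untreated wells.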

CCC(=O)N1c2ccccc2[C@H](Nc2ccc(C(=O)NCCCNC(=O)c3ccc(C4=N[C@@H](CC(=O)OC5CCC(O)CC5)c5nnc(C)n5-c5sc(C)c(C)c54)cc3)cc2)C[C@@H]1C (stereo partly drawn) [Compound 13d, 4-Hydroxycyclohexyl 2-((S)-2,3,9-trimethyl-4-(4-((3-(4-(((2S,4R)-2-methyl-1-propionyl-1,2,3,4-tetrahydroquinolin-4-yl)amino)benzamide)propyl)carbamoyl)phenyl)-6H-thieno[3,2-f][1,2,4]triazolo[4,3-a][1,4]diazepin-6-yl)acetate]
pIC50 [1]: 9.28
IC90 [1]: 1190 pM
Suppression Rate of MYC mRNA Expression (%) [2]: 97.2%

CCC(=O)N1c2ccccc2[C@H](Nc2ccc(-n3cc(CNC(=O)c4ccc(Cn5c(CC)cc6c5CCCC6=O)cc4)nn3)cc2)C[C@@H]1C [Compound 15f, 4-((2-Ethyl-4-oxo-4,5,6,7-tetrahydro-1H-indol-1-yl)methyl)-N-((1-(4-(((2S,4R)-2-methyl-1-propionyl-1,2,3,4-tetrahydroquinolin-4-yl)amino)phenyl)-1H-1,2,3-triazol-4-yl)methyl)benzamide]
pIC50 ([1]; Homo sapiens): 10.52
inhibition at 0.1 µM [2]: 97.2%

CCC(=O)N1c2ccccc2[C@H](Nc2ccc(-c3nnc(CNC(=O)C4CCN(Cc5cc(O)cc(-c6c(C)noc6C)c5)CC4)o3)cc2)C[C@@H]1C [Compound 12a, 1-(3-(3,5-Dimethylisoxazol-4-yl)-5-hydroxybenzyl)-N-((5-(4-(((2S,4R)-2-methyl-1-propionyl-1,2,3,4-tetrahydroquinolin-4-yl)amino)phenyl)-1,3,4-oxadiazol-2-yl)methyl)piperidine-4-carboxamide]
pIC50 ([1]; Homo sapiens): 9.29
inhibition at 0.1 µM [2]: 98.5%

CCC(=O)N1c2ccccc2[C@H](Nc2ccc(C(=O)N3CC4CC3CN4C(=O)c3ccc(N[C@@H]4C[C@H](C)N(C(=O)CC)c5ccccc54)cc3)cc2)C[C@@H]1C [Compound 1k, 1,1′-{(2S,2'S,4R,4′R)-{[(2,5-Diazabicyclo[2.2.1]heptane-2,5-dicarbonyl)bis(4,1-phenylene)]bis(azanediyl)}bis[2-methyl-3,4-dihydroquinoline-4,1(2H)-diyl]}bis(propan-1-one)]
pIC50 ([1]; Homo sapiens): 9.66
inhibition at 0.1 µM [2]: 98.6%

CCC(=O)N1c2ccccc2[C@H](Nc2ccc(C(=O)NC3CCN(C(=O)c4ccc(N[C@@H]5C[C@H](C)N(C(=O)CC)c6ccccc65)cc4)CC3)cc2)C[C@@H]1C (relative stereo) [Compound 1c, 4-{[(2S*,4R*)-2-Methyl-1-propionyl-1,2,3,4-tetrahydroquinolin-4-yl]amino}-N-[1-(4-{[(2S*,4R*)-2-methyl-1-propionyl-1,2,3,4-tetrahydroquinolin-4-yl]amino}benzoyl)piperidin-4-yl]benzamide]
pIC50 ([1]; Homo sapiens): 8.53
inhibition at 0.1 µM [2]: 97.3%

CCC(=O)N1c2ccccc2[C@H](Nc2ccc(NC(=O)C#CCNC(=O)C3CCC(N[C@@H]4C[C@H](C)N(C(=O)CC)c5ccccc54)CC3)cc2)C[C@@H]1C (relative stereo) [Compound 8g, (1R,4r)-4-(((2S*,4R*)-2-Methyl-1-propionyl-1,2,3,4-tetrahydroquinolin-4-yl)amino)-N-(4-((4-(((2S,4R)-2-methyl-1-propionyl-1,2,3,4-tetrahydroquinolin-4-yl)amino)phenyl)amino)-4-oxobut-2-yn-1-yl)cyclohexane-1-carboxamide]
pIC50 [1]: 11.10
IC90 [1]: 10 pM
Suppression Rate of MYC mRNA Expression (%) [2]: 96.6%

CCC(=O)N1c2ccccc2[C@H](NCCCCC(=O)NCc2cn(-c3ccc(N[C@@H]4C[C@H](C)N(C(=O)CC)c5ccccc54)cc3)nn2)C[C@@H]1C (relative stereo) [Compound 12f, 5-(((2S*,4R*)-2-Methyl-1-propionyl-1,2,3,4-tetrahydroquinolin-4-yl)amino)-N-((1-(4-(((2S,4R)-2-methyl-1-propionyl-1,2,3,4-tetrahydroquinolin-4-yl)amino)phenyl)-1H-1,2,3-triazol-4-yl)methyl)pentane amide]
pIC50 [1]: 9.62
IC90 [1]: 420 pM
Suppression Rate of MYC mRNA Expression (%) [2]: 97.9%
